Experiment: Effects of oral water administration on ITE dosed mice
Format: in vivo
Set-up: key to feces appearance: Moderate; Dry
Settings: for feces appearance (visual): after one week of dosing
Protocol: Oral injection of water was initiated at the same day i.p. administration of ITE was started. Daily oral gavage at 10 or 20 ml/kg was performed immediately following daily i.p. injection of ITE or DMSO continuously for the entire duration of the study. Both oral and i.p. injection were accidentally skipped at day 14 due to a mistake of the experimenter(s) and all of the other dosing were executed normally. Bodyweights (individual), food consumed (in group), feces weights (in group), and feces appearance (in group) were recorded every two days. Death of animal(s) and approximate cause of death etc. were also recorded.

[1] = ITE-H 300 mg/kg i.p. + Water-0, day 4
[2] = ITE-H 300 mg/kg i.p. + Water-0, day 6
[3] = ITE-H 300 mg/kg i.p. + Water-0, day 8
[4] = ITE-H 300 mg/kg i.p. + Water-0, day 10
[5] = ITE-H 300 mg/kg i.p. + Water-0, day 12
[6] = ITE-H 300 mg/kg i.p. + Water-0, day 14
[7] = ITE-H 300 mg/kg i.p. + Water-0, day 18 (line r16)
[8] = ITE-H 300 mg/kg i.p. + Water-0, day 18 (line r17)
[9] = ITE-H 300 mg/kg i.p. + Water-0, day 20
[10] = ITE-H 300 mg/kg i.p. + Water-0, day 22
[11] = ITE-H 300 mg/kg i.p. + Water-0, day 24
[12] = ITE-H 300 mg/kg i.p. + Water-0, day 26
[13] = ITE-H 300 mg/kg i.p. + Water-0, day 28
[14] = ITE-H 300 mg/kg i.p. + Water-0, day 30
[15] = ITE-H 300 mg/kg i.p. + Water-0, day 32
[16] = ITE-H 300 mg/kg i.p. + Water-0, day 34
[17] = ITE-H 300 mg/kg i.p. + Water-0, day 36
[18] = ITE-H 300 mg/kg i.p. + Water-H 20 ml/kg, day 4
[19] = ITE-H 300 mg/kg i.p. + Water-H 20 ml/kg, day 6
[20] = ITE-H 300 mg/kg i.p. + Water-H 20 ml/kg, day 8
[21] = ITE-H 300 mg/kg i.p. + Water-H 20 ml/kg, day 10
[22] = ITE-H 300 mg/kg i.p. + Water-H 20 ml/kg, day 12
[23] = ITE-H 300 mg/kg i.p. + Water-H 20 ml/kg, day 14
[24] = ITE-H 300 mg/kg i.p. + Water-H 20 ml/kg, day 18 (line r16)
[25] = ITE-H 300 mg/kg i.p. + Water-H 20 ml/kg, day 18 (line r17)
[26] = ITE-H 300 mg/kg i.p. + Water-H 20 ml/kg, day 20
[27] = ITE-H 300 mg/kg i.p. + Water-H 20 ml/kg, day 22
[28] = ITE-H 300 mg/kg i.p. + Water-H 20 ml/kg, day 24
[29] = ITE-H 300 mg/kg i.p. + Water-H 20 ml/kg, day 26
[30] = ITE-H 300 mg/kg i.p. + Water-H 20 ml/kg, day 28
[31] = ITE-H 300 mg/kg i.p. + Water-H 20 ml/kg, day 30
[32] = ITE-H 300 mg/kg i.p. + Water-H 20 ml/kg, day 32
[33] = ITE-H 300 mg/kg i.p. + Water-H 20 ml/kg, day 34
[34] = ITE-H 300 mg/kg i.p. + Water-L 10 ml/kg, day 4
[35] = ITE-H 300 mg/kg i.p. + Water-L 10 ml/kg, day 6
[36] = ITE-H 300 mg/kg i.p. + Water-L 10 ml/kg, day 8
[37] = ITE-H 300 mg/kg i.p. + Water-L 10 ml/kg, day 10
[38] = ITE-H 300 mg/kg i.p. + Water-L 10 ml/kg, day 12
[39] = ITE-H 300 mg/kg i.p. + Water-L 10 ml/kg, day 14
[40] = ITE-H 300 mg/kg i.p. + Water-L 10 ml/kg, day 18 (line r16)
[41] = ITE-H 300 mg/kg i.p. + Water-L 10 ml/kg, day 18 (line r17)
[42] = ITE-H 300 mg/kg i.p. + Water-L 10 ml/kg, day 20
[43] = ITE-H 300 mg/kg i.p. + Water-L 10 ml/kg, day 22
[44] = ITE-H 300 mg/kg i.p. + Water-L 10 ml/kg, day 24
[45] = ITE-H 300 mg/kg i.p. + Water-L 10 ml/kg, day 26
[46] = ITE-H 300 mg/kg i.p. + Water-L 10 ml/kg, day 28
[47] = ITE-H 300 mg/kg i.p. + Water-L 10 ml/kg, day 30
[48] = ITE-H 300 mg/kg i.p. + Water-L 10 ml/kg, day 32
[49] = ITE-H 300 mg/kg i.p. + Water-L 10 ml/kg, day 34

Compound: COC(=O)c1csc(C(=O)c2c[nH]c3ccccc23)n1 [ITE, 2-(1′H-indole-3′-carbonyl)-thiazole-4-carboxylic acid methyl ester]
- feces appearance (visual) (ITE high (300 mg/kg)): dry
- day at which one mouse died (ITE high dose (300 mg/kg) without oral water administration): 36 days
- feces appearance (visual) (ITE low (200 mg/kg)): dry
- day at which one mouse died (ITE low dose (200 mg/kg) without oral water administration): 28 days
- feces appearance [1]: M
- number of mice that died [1]: 0
- feces appearance [2]: M
- number of mice that died [2]: 0
- feces appearance [3]: D
- number of mice that died [3]: 0
- feces appearance [4]: D
- number of mice that died [4]: 0
- feces appearance [5]: D
- number of mice that died [5]: 0
- feces appearance [6]: D
- number of mice that died [6]: 0
- feces appearance [7]: D
- number of mice that died [7]: 0
- feces appearance [8]: D
- number of mice that died [8]: 0
- feces appearance [9]: D
- number of mice that died [9]: 0
- feces appearance [10]: D
- number of mice that died [10]: 0
- feces appearance [11]: D
- number of mice that died [11]: 0
- feces appearance [12]: D
- number of mice that died [12]: 0
- feces appearance [13]: D
- number of mice that died [13]: 0
- feces appearance [14]: D
- number of mice that died [14]: 0
- feces appearance [15]: D
- number of mice that died [15]: 0
- feces appearance [16]: D
- number of mice that died [16]: 0
- feces appearance [17]: D
- number of mice that died [17]: 1
- feces appearance [18]: M
- number of mice that died [18]: 0
- feces appearance [19]: M
- number of mice that died [19]: 0
- feces appearance [20]: D
- number of mice that died [20]: 0
- feces appearance [21]: D
- number of mice that died [21]: 0
- feces appearance [22]: D
- number of mice that died [22]: 0
- feces appearance [23]: D
- number of mice that died [23]: 0
- feces appearance [24]: D
- number of mice that died [24]: 0
- feces appearance [25]: D
- number of mice that died [25]: 0
- feces appearance [26]: D
- number of mice that died [26]: 0
- feces appearance [27]: D
- number of mice that died [27]: 0
- feces appearance [28]: D
- number of mice that died [28]: 0
- feces appearance [29]: D
- number of mice that died [29]: 0
- feces appearance [30]: M
- number of mice that died [30]: 0
- feces appearance [31]: M
- number of mice that died [31]: 0
- feces appearance [32]: M
- number of mice that died [32]: 0
- feces appearance [33]: M
- number of mice that died [33]: 0
- feces appearance [34]: M
- number of mice that died [34]: 0
- feces appearance [35]: M
- number of mice that died [35]: 0
- feces appearance [36]: D
- number of mice that died [36]: 0
- feces appearance [37]: D
- number of mice that died [37]: 0
- feces appearance [38]: D
- number of mice that died [38]: 0
- feces appearance [39]: D
- number of mice that died [39]: 0
- feces appearance [40]: D
- number of mice that died [40]: 0
- feces appearance [41]: D
- number of mice that died [41]: 0
- feces appearance [42]: D
- number of mice that died [42]: 0
- feces appearance [43]: D
- number of mice that died [43]: 0
- feces appearance [44]: D
- number of mice that died [44]: 0
- feces appearance [45]: D
- number of mice that died [45]: 0
- feces appearance [46]: M
- number of mice that died [46]: 0
- feces appearance [47]: M
- number of mice that died [47]: 0
- feces appearance [48]: M
- number of mice that died [48]: 0
- feces appearance [49]: M
- number of mice that died [49]: 0
